{
  "source": "patent US6890708B2",
  "about": "“Method for improving the quality of sperm for artificial insemination of animals” (priority 2000, dated 2005)",
  "format_in_all_cases": "cell-based, pig",
  "key": {"[1]": {"system": "Polymorphonuclear Neutrophils (PMN)", "test": "In vitro phagocytosis of boar sperm by PMN (phagocytosis assay)", "conditions": "for % of phagocytosed sperm: Exp. 1, preincubated 30 min. at 38° C.", "experimental": "Tyrode's medium was used as described as “standard Tyrode's medium” in […] et al. ([…], Harrison, R A P, Miller, N G A, Topper, E K, and Woelders, H, 1998, Enhanced Binding of Zona Pellucida Proteins to the Acrosomal Region of Intact Boar Spermatozoa in Response to Fertilizing Conditions: A Flow Cytometric Study. […] Serum was prepared from blood collected from 11 primiparous sows, pooled, and frozen in aliquots at -80° C. Per experiment, 20 ml peripheral blood of a single Dutch Landrace sow (each experiment a different sow) was collected in heparinized vacutainers (Venoject, Omnilabo, Breda, The Netherlands). The peripheral blood was subsequently diluted with an equal volume of phosphate buffered saline (PBS). […] The supernatant, including the mononuclear cells at the interface, was removed. The pellet was resuspended in 2 ml of ice-cold distilled water to lyse the erythrocytes. […] The PMNs were pelleted by centrifugation for 10 min at 400×g and the lysis procedure was repeated. […] All cell suspensions were pooled together, mixed well, and subjected to centrifugation. The PMN were resuspended in TM-s with inactivated complement, and the cell concentration was determined using a hemocytometer. The PMN preparation was stored overnight at 4° C. […] The viability, assessed by trypan blue exclusion, was >98%. Semen was obtained from Dutch A.I. stations. Per experiment, semen was used from a single Yorkshire breeding boar (each experiment a different boar). At the AI-station, the semen was diluted to a concentration of approximately 30×10^6 cells/ml in Beltsville Thawing Solution (BTS) (Johnson et al., 1988). The diluted semen was stored at 17° C. for up to 48 hours, until the diluted semen sample was used. […] Aliquots of 80 μl of the PMN suspension (see, PMN isolation and preparation of PMNs) in TM or TM-s, with either intact or inactivated complement, were transferred to a 96-well polystyrene microtest plate. […] The samples were incubated with gentle swirling on a test plate shaker. […] The heparin facilitates dissociation of agglutinated PMNs. The samples were thoroughly mixed, left for 15 min., and mixed again. […] The frozen-thawed semen was taken from a large stock of semen from one ejaculate and washed 3 times in PBS prior to use. […] The mounts enabled observation and counting of fluorescently labeled spermatozoa inside and outside the phagocytes. By focusing at different levels in the mount, spermatozoa that were located above or below the PMN could be distinguished from those that were phagocytosed. In many PMNs that had ingested a spermatozoon, the presence of the sperm nucleus or tail caused a conspicuous change of the shape of the PMN. Two hundred spermatozoa were evaluated and classified as inside or outside the PMN (i.e., phagocytosed or not phagocytosed). The same fixed mounts were used to assess the acrosome morphology of the non-phagocytosed spermatozoa at the moment of fixation."}, "[2]": {"system": "boar spermatozoa", "test": "Sperm viability in vitro (motility, acrosome morphology), Example I", "conditions": "Exp. 1", "experimental": "Aliquots of 80 μl of the PMN suspension (see, PMN isolation and preparation of PMNs) in TM or TM-s, with either intact or inactivated complement, were transferred to a 96-well polystyrene microtest plate. To each well, 20 μl of sperm suspension (see, preparation of semen samples) was added and the microtest plate was placed in a humidified incubator at 38° C. with 5% CO2 in air. […] The samples were incubated with gentle swirling on a test plate shaker. After 15, 30, 45, 60 or 90 min., samples were quantitatively transferred into tubes containing an equal volume of 40 mg ml^−1 heparin (Sigma) in PBS. The heparin facilitates dissociation of agglutinated PMNs. The samples were thoroughly mixed, left for 15 min., and mixed again. Subsamples of 75 μl were fixed by addition of 25 μl of 2% (v/v) glutaraldehyde (Fluka, Brunschwig chemie, Amsterdam, The Netherlands) in PBS. “Blank” samples, i.e., sperm without PMNs (80 μl TM-s mixed with 20 μl sperm suspension), were incubated in parallel to monitor sperm survival during the treatment. “Reference” samples, i.e., frozen-thawed (killed) semen, were incubated in parallel with the PMNs as a reference for the phagocytotic activity of the PMNs. The frozen-thawed semen was taken from a large stock of semen from one ejaculate and washed 3 times in PBS prior to use.\nFor evaluation of phagocytosis, wet mounts of the fixed samples were examined with a combination of phase-contrast and fluorescence microscopy (Olympus BH2, Tokyo, Japan) at 400× magnification. The mounts enabled observation and counting of fluorescently labeled spermatozoa inside and outside the phagocytes. By focusing at different levels in the mount, spermatozoa that were located above or below the PMN could be distinguished from those that were phagocytosed. […] Two hundred spermatozoa were evaluated and classified as inside or outside the PMN (i.e., phagocytosed or not phagocytosed). The same fixed mounts were used to assess the acrosome morphology of the non-phagocytosed spermatozoa at the moment of fixation. One hundred cells were classified using phase-contrast microscopy at 400× magnification, as NAR (normal apical ridge), NAR' (slightly altered normal apical ridge), DAR (damaged apical ridge), MAR (missing apical ridge) and LAC (loose acrosomal cap), as described by Pursel et al. (Pursel V G, Schulman L L and Johnson L A, 1978, Distribution and morphology of fresh and frozen-thawed sperm in the reproductive tract of gilts after insemination Biology of Reproduction 19 69-76.)"}, "[3]": {"system": "boar spermatozoa", "test": "Sperm viability in vitro (motility, acrosome morphology), Example I", "conditions": "Exp. 1; after adding active compound and pre-incubation 30 min. at 38° C."}, "[4]": {"conditions": "after adding active compound and pre-incubation 30 min. at 38° C."}, "[5]": {"conditions": "blank samples without PMN, (2x), phagocytosis time 30 min."}, "[6]": {"conditions": "blank samples without PMN, preincubated 30 min. at 38° C., phagocytosis time 30 min."}},
  "data": [
    {"compound": "CCCC(=O)Nc1ncnc2c1ncn2[C@@H]1O[C@@H]2COP(=O)(O)O[C@H]2[C@H]1OC(=O)CCC", "note": "[Db-cAMP, dibutyryl-cAMP]", "values": [
      {"measurement": "% of phagocytosed sperm", "setting": "[1]; 0.1 mM, phagocytosis time 15 min", "result": 35, "unit": "%"},
      {"measurement": "% of phagocytosed sperm", "setting": "[1]; 0.1 mM, phagocytosis time 30 min", "result": 59, "unit": "%"},
      {"measurement": "% of phagocytosed sperm", "setting": "[1]; 0.1 mM, phagocytosis time 60 min", "result": 60, "unit": "%"},
      {"measurement": "% of phagocytosed sperm", "setting": "[1]; 0.1 mM, phagocytosis time 90 min", "result": 65, "unit": "%"},
      {"measurement": "% of phagocytosed sperm", "setting": "[1]; 0.2 mM, phagocytosis time 15 min", "result": 47, "unit": "%"},
      {"measurement": "% of phagocytosed sperm", "setting": "[1]; 0.2 mM, phagocytosis time 30 min", "result": 47, "unit": "%"},
      {"measurement": "% of phagocytosed sperm", "setting": "[1]; 0.2 mM, phagocytosis time 60 min", "result": 58, "unit": "%"},
      {"measurement": "% of phagocytosed sperm", "setting": "[1]; 0.2 mM, phagocytosis time 90 min", "result": 54, "unit": "%"},
      {"measurement": "% DAR", "setting": "[2]; [4]", "result": 23, "unit": "%"},
      {"measurement": "% LAC", "setting": "[2]; [4]", "result": "08", "unit": "%"},
      {"measurement": "% MAR", "setting": "[2]; [4]", "result": "02", "unit": "%"},
      {"measurement": "% NAR", "setting": "[2]; [4]", "result": 67, "unit": "%"},
      {"measurement": "% LAC", "setting": "[2]; [5]", "result": "08", "unit": "%"},
      {"measurement": "% MAR (second value of NAR-MAR-MAR-LAC)", "setting": "[2]; [5]", "result": 36, "unit": "%"},
      {"measurement": "% MAR (third value of NAR-MAR-MAR-LAC)", "setting": "[2]; [5]", "result": "02", "unit": "%"},
      {"measurement": "% NAR", "setting": "[2]; [5]", "result": 54, "unit": "%"},
      {"measurement": "% LAC", "setting": "[2]; [6]", "result": "06", "unit": "%"},
      {"measurement": "% MAR (second value of NAR-MAR-MAR-LAC)", "setting": "[2]; [6]", "result": 36, "unit": "%"},
      {"measurement": "% MAR (third value of NAR-MAR-MAR-LAC)", "setting": "[2]; [6]", "result": "02", "unit": "%"},
      {"measurement": "% NAR", "setting": "[2]; [6]", "result": 56, "unit": "%"},
      {"measurement": "% motile sperm", "setting": "[3]", "result": 60, "unit": "%"}
    ]},
    {"compound": "O=C(O)CN(CCN(CC(=O)O)CC(=O)O)CC(=O)O", "note": "[EDTA]", "values": [
      {"measurement": "phagocytosis of sperm by PMN in vitro, in words", "setting": "[1]", "result": "reduce phagocytosis of sperm in vitro"}
    ]},
    {"compound": "heparin", "values": [
      {"measurement": "phagocytosis of sperm by PMN in vitro, in words", "setting": "[1]", "result": "inhibited strongly"}
    ]},
    {"compound": "Nc1ncnc2c1ncn2[C@@H]1O[C@@H]2COP(=O)(O)O[C@H]2[C@H]1O", "note": "[cAMP, cyclic Adenosine MonoPhosphate]", "values": [
      {"measurement": "phagocytosis of sperm by PMN in vitro, in words", "setting": "[1]", "result": "inhibits the phagocytosis of sperm in vitro"}
    ]}
  ]
}
